Patent EP1069130A1, “Moenomycin A Derivatives, their preparation, and use as antibacterial products” (HOECHST MARION ROUSSEL, priority 1999, dated 2001)

System: S. pyogenes A561
Assay: Method of dilutions in liquid medium (minimum inhibiting concentration)
Assay type: cell-based
Conditions: liquid nutritive medium, incubation twenty-four hours at 37° C, growth inhibition read by transillumination; for MIC: Streptococcus pyogenes, 24 h, read-out: minimum inhibiting concentrations (M.I.C.)
Description: Method of dilutions in liquid medium.
A series of tubes were prepared in which the same amount of sterile nutritive medium was distributed and increasing amounts of the product to be studied was distributed in each tube. Then, each tube was seeded with a bacterial strain and after incubationg for twenty-four hours in an oven at 37° C, the inhibition of growth was determined by transillumination which allowed the minimum inhibiting concentrations (M.I.C.) to be evaluated.
Products were tested on many strains inclusing : • S. aureus SG511 • S. aureus SG511 (+10 % serum) • S. aureus Exp54146 • S. pyogenes A561 • E. faecium M78L

Row | MIC [µg/mL] | SMILES | minimum inhibiting concentrations (M.I.C.)
1 | – | CC(=O)NC1C(OC2C(COC3OC(CO)C(O)C(O)C3O)OC(OC3C(OP(=O)(O)OCC(OCCNCC=C(C)CCCC(C)CCCC(C)CCCC(C)C)C(=O)O)OC(C(N)=O)C(C)(O)C3OC(N)=O)C(NC(C)=O)C2O)OC(C)C(OC2OC(C(N)=O)C(O)C(O)C2O)C1O [Example 4, 3-carbamate 1-[(2R)-2-carboxy-2-[[(3,7,11,15-tetramethyl-2-hexadecenyl)amino]ethoxy]ethyl hydrogen phosphate] 0-β-D-glucopyranosyl-(1→6)-O-[O-(β-D-galactopyranuronamidosyl)-(1→4)-2-(acetylamino)-2,6-dideoxy-β-D-glucopyranosyl-(1→4]-O-2-(acetylamino)-2-deoxy-.beat.-D-glucopyranosyl-(1→2)-4-C-methyl-α-D-Glucopyranuronamide] | ≤ 1,2 microgramme/ml
2 | ≤ 1.2 | CCCCCCCCCCCCc1ccc(NCCO[C@H](COP(=O)(O)O[C@H]2O[C@H](C(N)=O)[C@@](C)(O)[C@H](OC(N)=O)[C@H]2O[C@@H]2O[C@H](CO[C@@H]3O[C@H](CO)[C@@H](O)[C@H](O)[C@H]3O)[C@@H](O[C@@H]3O[C@H](C)[C@@H](O[C@@H]4O[C@H](C(N)=O)[C@H](O)[C@H](O)[C@H]4O)[C@H](O)[C@H]3NC(C)=O)[C@H](O)[C@H]2NC(C)=O)C(=O)O)cc1 [Example 5, 3-carbamate 1-[(2R)-2-carboxy-2-[[(4-dodecylphenyl))amino]ethoxy]ethyl hydrogen phosphate] 0-β-D-glucopyranosyl-(1→6)-O-[O-(β-D-galactopyranuronamidosyi)-(1→4)-2-(acetylamino)-2,6-dideoxy-β-D-glucopyranosyl-(1→4]-O-2-(acetylamino)-2-deoxy-.beat.-D-glucopyranosyl-(1→2)-4-C-methyl-α-D-Glucopyranuronamide] | –
3 | ≤ 1.2 | C=CC(CCCCCCCCC)C(O)CO[C@H](COP(=O)(O)O[C@H]1O[C@H](C(N)=O)[C@@](C)(O)[C@H](OC(N)=O)[C@H]1O[C@@H]1O[C@H](CO[C@@H]2O[C@H](CO)[C@@H](O)[C@H](O)[C@H]2O)[C@@H](O[C@@H]2O[C@H](C)[C@@H](O[C@@H]3O[C@H](C(N)=O)[C@H](O)[C@H](O)[C@H]3O)[C@H](O)[C@H]2NC(C)=O)[C@H](O)[C@H]1NC(C)=O)C(=O)O (stereo partly drawn) [Example 6] | –
